Patent US6878253B2, “Chiral separation of benzoporphyrin derivative mono-and di-acids by laser-induced fluorescence capillary electrophoresis” (The University of British Columbia, priority 1998, dated 2005)

Tests used:
[1] = Extinction coefficient determination in borate/cholate buffer; format: physicochemical; conditions: 430 nm; 300 mM borate, 10% acetonitrile, 25 mM sodium cholate, pH 9.2
Source text: The compounds have the same chromophore and identical absorption spectra (FIG. 3a) with a characteristic major broad peak in the Soret region (420 nm) and several other peaks at longer wavelengths. The most interesting long wavelength peak, in terms of applications in PDT, is the peak at 688 nm (in organic solvents). […] An emission spectrum is also shown in FIG. 3b with a characteristic emission at about 692 nm, near red (Q-band), with a Stokes shift of ˜4 nm for fluorescence. […] As such, there is no gain in photo absorption by use of any particular BPD enantiomer.

[2] = tested on: skin; conditions: versus Photofrin (Richter et al. (1987)); cited from earlier work
[3] = Decomposition (hydrolysis) in electrophoresis buffers; format: physicochemical; conditions: in one hour at pH 9.2
Experimental: Separation by CE is also affected by the buffering system used. Buffer type, concentration, ionic strength, and pH are all parameters to consider, and a variety of buffers may be used. Buffer solutions of pH 11.04, 100 mM 3-(cyclohexylamino)-1-propanesulfonic acid (CAPS); pH 6.76, 30 mM ammonium acetate; pH 2.76, 50 mM citric acid; and pH 9.2, 100 mM borate were tested as electrolytes. […] This was followed by either separation shut down or excess spiking and signal noise. In citric acid buffer the BPD enantiomers were protonated at the propionic side chain, defeating separation based on the deprotonated state. Since the effective charge(s) are the same for BPD-DA and BPD-MA, the electrophoretic mobility difference is normally very small. Also, at […], the EOF was very small and this caused the migration time to become overly long. The result was very poor signal separation due to extensive diffusion.
With borate buffer at about pH 9.2, however, the BPD-DA and BPD-MA enantiomers were completely separated. This, in combination with the ability of borate to form a very stable buffer solution with high buffering capacity and its ability to be used in very high concentrations, made it a preferred choice for use in the instant separation methods. Borate has also been used in other separation systems (Consden et al. (1952); Boeseken (1949); and Landers et al. (1992)). […]

Extinction coefficient [1]	decomposition [3]	Molecule	skin phototoxicity [2]
75,200 M^−1 cm^−1	–	C=Cc1c(C)c2cc3nc(cc4[nH]c(cc5nc(cc1[nH]2)C(C)=C5CCC(=O)O)c(CCC(=O)O)c4C)[C@@]1(C)C3=CC=C(C(=O)OC)[C@H]1C(=O)OC [BPD-DA, benzoporphyrin derivative diacid]	–
61,000 M^−1 cm^−1	less than 1%	benzoporphyrin derivative monoacid ring A [BPD-MA]	lower skin phototoxicity than Photofrin
